Laboratory results published in patent US20050124667A1, “Oxamide inhibitors of plasminogen activator inhibitor-1” (priority 2003, published 2005).

| Compound | melting point [°C] |
| --- | --- |
| CN1CCCC1CCNC(=O)c1ccc(O)c(NC(=O)C(=O)Nc2cc(Cl)cc(Cl)c2O)c1 (racemic) [Example 34, N-(3,5-Dichloro-2-hydroxy-phenyl)-N′-{2-hydroxy-5-[2-(1-methyl-pyrrolidin-2-yl)-ethylcarbamoyl]-phenyl}-oxalamide (Racemic)] | 220 |
| CCOC(=O)C(Cc1ccccc1)NC(=O)c1ccc(O)c(NC(=O)C(=O)Nc2cc(Cl)cc(Cl)c2O)c1 (stereo in doubt) [Example 32, 2(2R)-{3-[(3,5-Dichloro-2-hydroxy-phenylaminooxalyl)-amino]-4-hydroxy-benzoylamino}-3-phenyl-propionic acid ethyl ester] | 254 |
| Cc1ccc(NC(=O)C(=O)Nc2cc(Cl)cc(Cl)c2O)c(O)c1 [Example 3, N-(3,5-Dichloro-2-hydroxy-phenyl)-N′-(2-hydroxy-4-methyl-phenyl)-oxalamide] | 283 |
| O=C(Nc1cc([N+](=O)[O-])ccc1O)C(=O)Nc1cc(Cl)cc(Cl)c1O [Example 4, N-(3,5-Dichloro-2-hydroxy-phenyl)-N′-(2-hydroxy-5-nitro-phenyl)-oxalamide] | 386 |
| O=C(Nc1cc(-c2ccccc2)ccc1O)C(=O)Nc1cc(Cl)cc(Cl)c1O [Example 5, N-(3,5-Dichloro-2-hydroxy-phenyl)-N′-(4-hydroxy-biphenyl-3-yl)-oxalamide] | 288 |
| O=C(Nc1cc2ccccc2cc1O)C(=O)Nc1cc(Cl)cc(Cl)c1O [Example 6, N-(3,5-Dichloro-2-hydroxy-phenyl)-N′-(3-hydroxy-naphthalen-2-yl)-oxalamide] | 313 |
| O=C(Nc1cc(Cl)ccc1O)C(=O)Nc1cc(Cl)cc(Cl)c1O [Example 7, N-(5-Chloro-2-hydroxy-phenyl)-N′-(3,5-dichloro-2-hydroxy-phenyl)-oxalamide] | 311 |
| O=C(Nc1cc(Cl)cc(Cl)c1O)C(=O)Nc1c(O)ccc2ccccc12 [Example 8, N-(3,5-Dichloro-2-hydroxy-phenyl)-N′-(2-hydroxy-naphthalen-1-yl)-oxalamide] | 265 |
| CCC(C)(C)c1ccc(NC(=O)C(=O)Nc2cc(Cl)cc(Cl)c2O)c(O)c1 [Example 9, N-(3,5-Dichloro-2-hydroxy-phenyl)-N′-[4-(1,1-dimethyl-propyl)-2-hydroxy-phenyl]-oxalamide] | 260 |
| Cc1cccc(O)c1NC(=O)C(=O)Nc1cc(Cl)cc(Cl)c1O [Example 10, N-(3,5-Dichloro-2-hydroxy-phenyl)-N′-(2-hydroxy-6-methyl-phenyl)-oxalamide] | 260 |
| COC(=O)c1ccc(NC(=O)C(=O)Nc2cc(Cl)cc(Cl)c2O)c(O)c1 [Example 12, 4-[(3,5-Dichloro-2-hydroxy-phenylaminooxalyl)-amino]-3-hydroxy-benzoic Acid Methyl Ester] | 271 |
| N#Cc1ccc(O)c(NC(=O)C(=O)Nc2cc(Cl)cc(Cl)c2O)c1 [Example 15, N-(5-Cyano-2-hydroxy-phenyl)-N′-(3,5-dichloro-2-hydroxy-phenyl)-oxalamide] | 298 |
| COc1ccc(O)c(NC(=O)C(=O)Nc2cc(Cl)cc(Cl)c2O)c1 [Example 17, N-(3,5-Dichloro-2-hydroxy-phenyl)-N′-(2-hydroxy-5-methoxy-phenyl)-oxalamide] | 273 |
| O=C(Nc1cc(F)ccc1O)C(=O)Nc1cc(Cl)cc(Cl)c1O [Example 18, N-(3,5-Dichloro-2-hydroxy-phenyl)-N′-(5-fluoro-2-hydroxy-phenyl)-oxalamide] | 297 |
| O=C(Nc1cccc(Cl)c1O)C(=O)Nc1cc(Cl)cc(Cl)c1O [Example 19, N-(3-Chloro-2-hydroxy-phenyl)-N′-(3,5-dichloro-2-hydroxy-phenyl)-oxalamide] | 296 |
| O=C(Nc1cc(Cl)cc(Cl)c1O)C(=O)Nc1ccc(F)c(F)c1O [Example 20, N-(3,5-Dichloro-2-hydroxy-phenyl)-N′-(3,4-difluoro-2-hydroxy-phenyl)-oxalamide] | 302 |
| O=C(Nc1cc(C(F)(F)F)ccc1O)C(=O)Nc1cc(Cl)cc(Cl)c1O [Example 21, N-(3,5-Dichloro-2-hydroxy-phenyl)-N′-(2-hydroxy-5-trifluoromethyl-phenyl)-oxalamide] | 281 |
| O=C(Nc1ccc(C(=O)O)cc1O)C(=O)Nc1cc(Cl)cc(Cl)c1O [Example 24, 4-[(3,5-Dichloro-2-hydroxy-phenylaminooxalyl)-amino]-3-hydroxy-benzoic Acid] | 323 |
| CCOC(=O)c1ccc(O)c(NC(=O)C(=O)Nc2cc(Cl)cc(Cl)c2O)c1 [Example 25, 3-[(3,5-Dichloro-2-hydroxy-phenylaminooxalyl)-amino]-4-hydroxy-benzoic Acid Ethyl Ester] | 270 |
| CN1CCN(CCCNC(=O)c2ccc(O)c(NC(=O)C(=O)Nc3cc(Cl)cc(Cl)c3O)c2)CC1 [Example 30, N-(3,5-Dichloro-2-hydroxy-phenyl)-N′-{2-hydroxy-5-[3-(4-methyl-piperazin-1-yl)-propylcarbamoyl]-phenyl}-oxalamide] | 232 |
| O=C(Nc1cc(C(=O)NCc2ccncc2)ccc1O)C(=O)Nc1cc(Cl)cc(Cl)c1O [Example 33, N-(3,5-Dichloro-2-hydroxy-phenyl)-N′-{2-hydroxy-5-[(pyridin-4-ylmethyl)-carbamoyl]-phenyl}-oxalamide] | 250 |
| CN(C)CCCNC(=O)c1ccc(O)c(NC(=O)C(=O)Nc2cc(Cl)cc(Cl)c2O)c1 [Example 35, N-(3,5-Dichloro-2-hydroxy-phenyl)-N′-[5-(3-dimethylamino-propylcarbamoyl)-2-hydroxy-phenyl]-oxalamide] | 205 |
| O=C(Nc1cc(C(=O)NCCCn2ccnc2)ccc1O)C(=O)Nc1cc(Cl)cc(Cl)c1O [Example 36, N-(3,5-Dichloro-2-hydroxy-phenyl)-N′-[2-hydroxy-5-(3-imidazol-1-yl-propylcarbamoyl)-phenyl]-oxalamide] | 175 |
| O=C(Nc1ccc(C(=O)NCCCn2ccnc2)cc1O)C(=O)Nc1cc(Cl)cc(Cl)c1O [Example 43, N-(3,5-Dichloro-2-hydroxy-phenyl)-N′-[2-hydroxy-4-(3-imidazol-1-yl-propylcarbamoyl)-phenyl]-oxalamide] | 225 |
